Assay results: patent US9226916B2, “Pyrrolidine derivatives” (HOFFMANN-LA ROCHE INC., priority 2009, dated 2016)

These compounds were tested against T1, recombinant human NK3 receptor (Homo sapiens, UniProt P29371) (assay: [3H]SR142801 competition binding assay). Conditions: not given.
T1 construct: expressed in transfected cells; host or cells: HEK293 cells, transient expression; membranes
T1 sequence (P29371 1-465): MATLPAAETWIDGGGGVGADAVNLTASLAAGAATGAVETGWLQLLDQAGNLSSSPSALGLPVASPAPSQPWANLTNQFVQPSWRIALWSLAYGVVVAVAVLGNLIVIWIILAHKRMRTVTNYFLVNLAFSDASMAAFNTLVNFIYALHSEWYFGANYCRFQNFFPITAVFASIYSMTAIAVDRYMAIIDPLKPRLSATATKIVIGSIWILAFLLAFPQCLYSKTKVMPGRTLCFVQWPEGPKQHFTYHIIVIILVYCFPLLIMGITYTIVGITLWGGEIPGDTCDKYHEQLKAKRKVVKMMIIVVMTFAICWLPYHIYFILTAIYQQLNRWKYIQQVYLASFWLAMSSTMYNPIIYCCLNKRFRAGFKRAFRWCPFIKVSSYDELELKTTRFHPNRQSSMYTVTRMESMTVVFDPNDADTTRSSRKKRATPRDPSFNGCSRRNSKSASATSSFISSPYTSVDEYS

Compound	Ki
CN(C(=O)Oc1ccc(F)cc1)[C@@H]1CN(C(=O)C2CCN(c3ccc(C(=O)NC(C)(C)C)cn3)CC2)C[C@H]1c1ccc(Cl)cc1 (racemic) [Example 120, rac-[(3S,4R)-1-(5′-tert-Butylcarbamoyl-3,4,5,6-tetrahydro-2H-[1,2′]bipyridinyl-4-carbonyl)-4-(4-chloro-phenyl)-pyrrolidin-3-yl]-methyl-carbamic acid 4-fluoro-phenyl ester]	1.6 nM
CN(C(=O)Oc1ccccc1)[C@@H]1CN(C(=O)C2CCN(c3ccc(C#N)cn3)CC2)C[C@H]1c1ccc(Cl)cc1 [Example 200, [(3S,4R)-4-(4-Chloro-phenyl)-1-(5′-cyano-3,4,5,6-tetrahydro-2H-[1,2′]bipyridinyl-4-carbonyl)-pyrrolidin-3-yl]-methyl-carbamic acid phenyl ester]	7.2 nM
CN(C(=O)Oc1cccc(F)c1F)[C@@H]1CN(C(=O)C2CCN(c3ccc(C#N)cn3)CC2)C[C@H]1c1ccc(Cl)cc1 [Example 211, [(3S,4R)-4-(4-Chloro-phenyl)-1-(5′-cyano-3,4,5,6-tetrahydro-2H-[1,2′]bipyridinyl-4-carbonyl)-pyrrolidin-3-yl]-methyl-carbamic acid 2,3-difluoro-phenyl ester]	2.4 nM
COc1ccc(OC(=O)N(C)[C@H]2CN(C(=O)C3CCN(CC4CC4)CC3)C[C@@H]2c2ccc(Cl)c(Cl)c2)cc1 (racemic) [Example 9, rac-[(3R,4S)-1-(1-Cyclopropylmethyl-piperidine-4-carbonyl)-4-(3,4-dichloro-phenyl)-pyrrolidin-3-yl]-methyl-carbamic acid 4-methoxy-phenyl ester]	13.6 nM
COCC1(C(=O)N2CCC(C(=O)N3C[C@@H](N(C)C(=O)Oc4ccc(F)cc4)[C@H](c4ccc(Cl)c(Cl)c4)C3)CC2)CC1 [Example 277, {(3S,4R)-4-(3,4-Dichloro-phenyl)-1-[1-(1-methoxymethyl-cyclopropanecarbonyl)-piperidine-4-carbonyl]-pyrrolidin-3-yl}-methyl-carbamic acid 4-fluoro-phenyl ester]	0.5 nM
CN(C(=O)Oc1ccc(F)cc1)[C@H]1CN(C(=O)CCC(N)=O)C[C@@H]1c1ccc(Cl)c(Cl)c1 (racemic) [Example 55, rac-[(3R,4S)-1-(3-Carbamoyl-propionyl)-4-(3,4-dichloro-phenyl)-pyrrolidin-3-yl]-methyl-carbamic acid 4-fluoro-phenyl ester]	86.1 nM
CN(C(=O)Oc1ccc(F)cc1)[C@H]1CN(C(=O)C2CCN(C(=O)C3(C)CC3)CC2)C[C@@H]1c1ccc(Cl)cc1 [Example 38, {(3R,4S)-4-(4-Chloro-phenyl)-1-[1-(1-methyl-cyclopropanecarbonyl)-piperidine-4-carbonyl]-pyrrolidin-3-yl}-methyl-carbamic acid 4-fluoro-phenyl ester]	42 nM
CC(=O)N1CCC(C(=O)N2C[C@@H](N(C)C(=O)Oc3ccc(F)cc3)[C@H](c3ccc(Cl)c(Cl)c3)C2)CC1 [Example 283, [(3S,4R)-1-(1-Acetyl-piperidine-4-carbonyl)-4-(3,4-dichloro-phenyl)-pyrrolidin-3-yl]-methyl-carbamic acid 4-fluoro-phenyl ester]	0.7 nM
CN(C(=O)Oc1ccc(F)cc1)[C@H]1CN(C(=O)C2CCN(C(=O)C3(C)CC3)CC2)C[C@@H]1c1ccc(Cl)c(Cl)c1 (racemic) [Example 2, rac-{(3R,4S)-4-(3,4-Dichloro-phenyl)-1-[1-(1-methyl-cyclopropanecarbonyl)-piperidine-4-carbonyl]-pyrrolidin-3-yl}-methyl-carbamic acid 4-fluoro-phenyl ester]	0.4 nM
CN(C(=O)OCCC(C)(C)O)[C@H]1CN(C(=O)C2CCN(C(=O)C3(C)CC3)CC2)C[C@@H]1c1ccc(Cl)c(Cl)c1 (racemic) [Example 98, rac-{(3R,4S)-4-(3,4-Dichloro-phenyl)-1-[1-(1-methyl-cyclopropanecarbonyl)-piperidine-4-carbonyl]-pyrrolidin-3-yl}-methyl-carbamic acid 3-hydroxy-3-methyl-butyl ester]	48 nM
CN(C(=O)OCCCC(F)(F)F)[C@@H]1CN(C(=O)C2CCN(c3ccc(C(=O)NC(C)(C)C)cn3)CC2)C[C@H]1c1ccc(Cl)cc1 (racemic) [Example 124, rac-[(3S,4R)-1-(5′-tert-Butylcarbamoyl-3,4,5,6-tetrahydro-2H-[1,2′]bipyridinyl-4-carbonyl)-4-(4-chloro-phenyl)-pyrrolidin-3-yl]-methyl-carbamic acid 4,4,4-trifluoro-butyl ester]	40.2 nM
Cc1ccnc(N2CCC(C(=O)N3C[C@@H](N(C)C(=O)Oc4ccc(F)cc4)[C@H](c4ccc(Cl)cc4)C3)CC2)n1 [Example 167, {(3S,4R)-4-(4-Chloro-phenyl)-1-[1-(4-methyl-pyrimidin-2-yl)-piperidine-4-carbonyl]-pyrrolidin-3-yl}-methyl-carbamic acid 4-fluoro-phenyl ester]	4.9 nM
CN(C(=O)O[C@H]1CC[C@H](C)CC1)[C@@H]1CN(C(=O)C2CCN(c3ccc(C#N)cn3)CC2)C[C@H]1c1ccc(Cl)cc1 [Example 221, [(3S,4R)-4-(4-Chloro-phenyl)-1-(5′-cyano-3,4,5,6-tetrahydro-2H-[1,2′]bipyridinyl-4-carbonyl)-pyrrolidin-3-yl]-methyl-carbamic acid 4-methyl-cyclohexyl ester]	1 nM
CCCCOC(=O)N(C)[C@H]1CN(C(=O)C2CCN(C(=O)C3(C)CC3)CC2)C[C@@H]1c1ccc(Cl)cc1 (racemic) [Example 27, rac-{(3R,4S)-4-(4-Chloro-phenyl)-1-[1-(1-methyl-cyclopropanecarbonyl)-piperidine-4-carbonyl]-pyrrolidin-3-yl}-methyl-carbamic acid butyl ester]	30.7 nM
CC(=O)N1CCC(C(=O)N2C[C@@H](N(C)C(=O)Oc3ccc(F)cc3)[C@H](c3ccc(F)cc3)C2)CC1 [Example 285, [(3S,4R)-1-(1-Acetyl-piperidine-4-carbonyl)-4-(4-fluoro-phenyl)-pyrrolidin-3-yl]-methyl-carbamic acid 4-fluoro-phenyl ester]	19.1 nM
CN(C(=O)Oc1ccc(F)cc1)[C@@H]1CN(C(=O)C2CCN(c3cnc(C#N)cn3)CC2)C[C@H]1c1ccc(Cl)cc1 [Example 193, {(3S,4R)-4-(4-Chloro-phenyl)-1-[1-(5-cyano-pyrazin-2-yl)-piperidine-4-carbonyl]-pyrrolidin-3-yl}-methyl-carbamic acid 4-fluoro-phenyl ester]	1.1 nM
CN(C(=O)Oc1ccc(F)cc1)[C@@H]1CN(C(=O)C2CCN(C(=O)C3(C(F)(F)F)CCC3)CC2)C[C@H]1c1ccc(Cl)c(Cl)c1 [Example 270, {(3S,4R)-4-(3,4-Dichloro-phenyl)-1-[1-(1-trifluoromethyl-cyclobutanecarbonyl)-piperidine-4-carbonyl]-pyrrolidin-3-yl}-methyl-carbamic acid 4-fluoro-phenyl ester]	0.6 nM
CN(C(=O)OCCC(F)(F)F)[C@@H]1CN(C(=O)C2CCN(C(=O)C3(C)CC3)CC2)C[C@H]1c1ccc(Cl)c(Cl)c1 (stereo in doubt) [Example 87, {(3S,4R)-4-(3,4-Dichloro-phenyl)-1-[1-(1-methyl-cyclopropanecarbonyl)-piperidine-4-carbonyl]-pyrrolidin-3-yl}-methyl-carbamic acid 3,3,3-trifluoro-propyl ester]	9.2 nM
Cc1nnc(N2CCC(C(=O)N3C[C@@H](N(C)C(=O)Oc4ccc(F)cc4)[C@H](c4ccc(Cl)cc4)C3)CC2)o1 [Example 134, {(3S,4R)-4-(4-Chloro-phenyl)-1-[1-(5-methyl-[1,3,4]oxadiazol-2-yl)-piperidine-4-carbonyl]-pyrrolidin-3-yl}-methyl-carbamic acid 4-fluoro-phenyl ester]	3.6 nM
CN(C(=O)Oc1ccc(F)c(Br)c1)[C@@H]1CN(C(=O)C2CCN(C(=O)C3(C)CC3)CC2)C[C@H]1c1ccc(Cl)c(Cl)c1 [Example 113, {(3S,4R)-4-(3,4-Dichloro-phenyl)-1-[1-(1-methyl-cyclopropanecarbonyl)-piperidine-4-carbonyl]-pyrrolidin-3-yl}-methyl-carbamic acid 3-bromo-4-fluoro-phenyl ester]	0.3 nM

Same assay, conditions: hNK-3 receptor affinity; membranes from HEK293 cells transiently expressing recombinant human NK3 receptor; [3H]SR142801; Cheng-Prussoff; read-out: Data Ki

Ki	Compound
19.2 nM	CC(OC(=O)N(C)[C@@H]1CN(C(=O)C2CCN(c3ccc(C#N)cn3)CC2)C[C@H]1c1ccc(Cl)cc1)C1CC1 (stereo partly drawn) [Example 153, [(3S,4R)-4-(4-Chloro-phenyl)-1-(5′-cyano-3,4,5,6-tetrahydro-2H-[1,2′]bipyridinyl-4-carbonyl)-pyrrolidin-3-yl]-methyl-carbamic acid 1-cyclopropyl-ethyl ester]
41.2 nM	CN(C(=O)OC1CCCC1)[C@@H]1CN(C(=O)C2CCN(c3ccc(C#N)cn3)CC2)C[C@H]1c1ccc(Cl)cc1 [Example 204, [(3S,4R)-4-(4-Chloro-phenyl)-1-(5′-cyano-3,4,5,6-tetrahydro-2H-[1,2′]bipyridinyl-4-carbonyl)-pyrrolidin-3-yl]-methyl-carbamic acid cyclopentyl ester]
36.4 nM	CC(OC(=O)N(C)[C@@H]1CN(C(=O)C2CCN(c3ccc(C#N)cn3)CC2)C[C@H]1c1ccc(Cl)cc1)C(F)(F)F (stereo partly drawn) [Example 166, [(3S,4R)-4-(4-Chloro-phenyl)-1-(5′-cyano-3,4,5,6-tetrahydro-2H-[1,2′]bipyridinyl-4-carbonyl)-pyrrolidin-3-yl]-methyl-carbamic acid 2,2,2-trifluoro-1-methyl-ethyl ester]
